From BindingDB's records for doi:10.1016/j.bmcl.2003.11.082 (Cubist Pharmaceuticals, 2004)

Key:
[1] = biological target: Phenylalanine--tRNA ligase (Staphylococcus aureus); assay: Compound was evaluated for the inhibitory activity against Staphylococcus aureus phenylalanyl-tRNA synthetase
[2] = biological target: Phenylalanine--tRNA ligase (Escherichia coli); assay: Compound was evaluated for the inhibitory activity against Escherichia coli phenylalanyl-tRNA synthetase

IC50 [1]: 33 µM
IC50 [2]: 11 µM
SMILES: O=C(Nc1ccc(Cl)c(Cl)c1)[C@H]1[C@@H](C(=O)O)C2(O[C@H]1c1ccccc1)C(=O)c1ccccc1C2=O [4-(3,4-dichlorophenylcarbamoyl)-1',3'-dioxo-5-phenylspiro[tetrahydrofuran-2,2'-(2',3'-dihydro-1'H-indene)]-3-carboxylic acid]
